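Protocol summary: plate cells (96-well), add compound at 5 concentrations, incubate 48 h, interpolate endpoints linearly. The concentration for 50% growth inhibition is given as GI50.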 The source made the active and inactive calls. No stated cut-off is given here; in the data, active = GI50 up to about 1.1 µM and inactive = higher.
How the values were obtained:
Experiment in all cases: growth of human tumour cells (NCI), 48 h
786-0 = system: 786-0
A498 = system: A498
A549 = system: A549
ACHN = system: ACHN
BT-549 = system: BT-549
CAKI-1 = system: CAKI-1
CCRF-CEM = system: CCRF-CEM
COLO 205 = system: COLO 205
DU-145 = system: DU-145
EKVX = system: EKVX
HCC 2998 = system: HCC 2998
HCT-116 = system: HCT-116
HCT-15 = system: HCT-15
HL-60 = system: HL-60
HOP-62 = system: HOP-62
HOP-92 = system: HOP-92
HT-29 = system: HT-29
Hs-578T = system: Hs-578T
IGROV-1 = system: IGROV-1
K562 = system: K562
KM12 = system: KM12
LOX IMVI = system: LOX IMVI
M14 = system: M14
MCF7 = system: MCF7
MDA-MB-231 = system: MDA-MB-231
MDA-MB-435 = system: MDA-MB-435
MDA-N = system: MDA-N
MOLT-4 = system: MOLT-4
Malme-3M = system: Malme-3M
NCI-H226 = system: NCI-H226
NCI-H23 = system: NCI-H23
NCI-H460 = system: NCI-H460
NCI-H522 = system: NCI-H522
NCI/ADR-RES = system: NCI/ADR-RES
OVCAR-3 = system: OVCAR-3
OVCAR-4 = system: OVCAR-4
OVCAR-5 = system: OVCAR-5
OVCAR-8 = system: OVCAR-8
PC-3 = system: PC-3
RPMI-8226 = system: RPMI-8226
RXF 393 = system: RXF 393
SF-268 = system: SF-268
SF-295 = system: SF-295
SF-539 = system: SF-539
SK-MEL-28 = system: SK-MEL-28
SK-MEL-2 = system: SK-MEL-2
SK-MEL-5 = system: SK-MEL-5
SK-OV-3 = system: SK-OV-3
SN12C = system: SN12C
SNB-19 = system: SNB-19
SNB-75 = system: SNB-75
SR = system: SR
SW-620 = system: SW-620
T47D = system: T47D
TK-10 = system: TK-10
U-251 = system: U-251
UACC-257 = system: UACC-257
UACC-62 = system: UACC-62
UO-31 = system: UO-31

Measured: GI50

Cc1ccc2cccc(OC(=O)c3cc4c(cc3Cl)Sc3nccn3S4(=O)=O)c2n1
5.26 µM: HCT-15
inactive: 786-0 17 µM | A498 17.7 µM | A549 11.2 µM | ACHN 10.5 µM | BT-549 17.4 µM | CAKI-1 26.6 µM | CCRF-CEM 2.5 µM | COLO 205 15.8 µM | DU-145 5.83 µM | EKVX 16.7 µM | HCC 2998 5.75 µM | HCT-116 6.53 µM | HOP-92 14.6 µM | HT-29 10 µM | Hs-578T 13.4 µM | IGROV-1 6.37 µM | K562 4.06 µM | KM12 5.75 µM | LOX IMVI 7.13 µM | M14 8.79 µM | MCF7 5.71 µM | MDA-MB-231 14.1 µM | MDA-MB-435 9.59 µM | MDA-N 14.4 µM | MOLT-4 4.55 µM | Malme-3M 17.5 µM | NCI-H226 21 µM | NCI-H23 16.3 µM | NCI-H460 3.13 µM | NCI-H522 9.82 µM | NCI/ADR-RES 14 µM | OVCAR-3 2.75 µM | OVCAR-4 11.3 µM | OVCAR-5 23.8 µM | OVCAR-8 4.71 µM | PC-3 4.39 µM | RPMI-8226 2.33 µM | RXF 393 5.16 µM | SF-268 6.98 µM | SF-295 12.9 µM | SF-539 5.61 µM | SK-MEL-28 10.2 µM | SK-MEL-2 11.5 µM | SK-MEL-5 12.3 µM | SK-OV-3 22.8 µM | SN12C 12.8 µM | SNB-19 12.9 µM | SNB-75 9.66 µM | SR 3.75 µM | SW-620 9.71 µM | T47D 4.44 µM | TK-10 11 µM | U-251 4.34 µM | UACC-257 12.2 µM | UACC-62 14.7 µM | UO-31 2.05 µM
active: HL-60 < 0.01 µM | HOP-62 0.661 µM
